# In patent US11485735B2, “Selective CDK4/6 inhibitor and preparation thereof” (Wuxi Shuangliang Biotechnology Co., Ltd., priority 2019, dated 2022):
# Counter-ions that a name gives are not always drawn.
# Key:
# [1] = target: T1, CDK4/CyclinD3 (Homo sapiens, UniProt P11802); assay: In-vitro kinase inhibitory activity, CDK4/CyclinD3 (Caliper EZ Reader II mobility shift); type: biochemical; details: CDK4/CyclinD3 20 nM, ATP 2 mM, Peptide 1 μM, 27° C., 180 min; read-out: IC50 (half maximal inhibitory concentration, nM) CDK4
# T1 construct: purchased Wuxi Biortus Biosciences Co. Ltd
# T1 sequence (P11802 whole entry, species assumed): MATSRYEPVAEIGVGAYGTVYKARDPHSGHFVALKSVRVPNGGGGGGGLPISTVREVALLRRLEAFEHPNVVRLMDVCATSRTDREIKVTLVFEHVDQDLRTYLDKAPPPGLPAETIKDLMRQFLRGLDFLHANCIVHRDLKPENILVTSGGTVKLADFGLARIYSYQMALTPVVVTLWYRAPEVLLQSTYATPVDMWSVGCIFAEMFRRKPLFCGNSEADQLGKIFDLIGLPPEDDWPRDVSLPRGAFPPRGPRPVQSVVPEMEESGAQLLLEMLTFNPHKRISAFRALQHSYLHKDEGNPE
# T1 sequence (P30281 whole entry partner, species assumed): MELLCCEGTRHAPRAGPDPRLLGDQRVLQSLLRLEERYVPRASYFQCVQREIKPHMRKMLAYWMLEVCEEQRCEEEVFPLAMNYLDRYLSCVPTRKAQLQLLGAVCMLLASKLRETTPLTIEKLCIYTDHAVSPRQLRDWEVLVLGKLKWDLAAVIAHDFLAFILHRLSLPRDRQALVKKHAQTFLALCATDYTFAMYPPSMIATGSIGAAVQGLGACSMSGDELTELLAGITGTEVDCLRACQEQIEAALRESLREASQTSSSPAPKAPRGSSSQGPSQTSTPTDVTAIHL
# Procedure: The final volume for assay was 16 μL, and the reaction temperature was 27° C. CDK4/CyclinD3 was produced by Wuxi Biortus Biosciences Co. Ltd. The concentration of the kinase was determined by the results of the optimization experiment. The kinase was diluted with an assay buffer (50 mM Tris HCl pH 8.0, 0.01% Tween 20, 50 μg/mL BSA, and 5 mM MgCl2) to obtain a corresponding kinase solution (2.4× concentration). The compound was dissolved in dimethyl sulfoxide (DMSO) to reach a concentration of 10 mM. […] 2 μL of the test compound solution was mixed with 5 μL of the kinase solution, and the mixture was incubated for 10 min. 5 μL of the mixed solution of the polypeptide substrate and ATP was then added. The mixture was incubated at 27° C. for 180 min, and then the reaction was terminated by adding 4 μL of EDTA with a concentration of 120 mM to each sample. […] Each assay was conducted in at least two replicates.
# (§1) The final concentrations of the reagents in the assay were as follows. […] The reaction mixture was analyzed on a Caliper EZ Reader II by electrophoretic separation of the fluorescent substrate and the phosphorylated product. Data were calculated by using GraphPad Prism version 6.0 and IC50 values were obtained by adjusting the non-linear regression models of the dose response curves.
# [2] = target: T2, CDK6/CyclinD3 (Homo sapiens, UniProt Q00534); assay: In-vitro kinase inhibitory activity, CDK6/CyclinD3 (Caliper EZ Reader II mobility shift); type: biochemical; details: CDK6/CyclinD3 20 nM, ATP 2 mM, Peptide 1 μM, 27° C., 120 min; read-out: IC50 (half maximal inhibitory concentration, nM) CDK6
# T2 construct: purchased Wuxi Biortus Biosciences Co. Ltd
# T2 sequence (Q00534 whole entry, species assumed): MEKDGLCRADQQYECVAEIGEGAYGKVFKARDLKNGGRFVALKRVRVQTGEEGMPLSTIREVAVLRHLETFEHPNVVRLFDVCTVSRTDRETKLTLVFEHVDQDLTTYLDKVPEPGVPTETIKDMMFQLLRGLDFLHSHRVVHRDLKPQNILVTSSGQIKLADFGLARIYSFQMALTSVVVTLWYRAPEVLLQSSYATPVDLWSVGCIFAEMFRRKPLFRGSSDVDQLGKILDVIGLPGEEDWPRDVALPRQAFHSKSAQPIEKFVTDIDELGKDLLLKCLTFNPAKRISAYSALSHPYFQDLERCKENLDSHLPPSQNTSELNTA
# T2 sequence (P30281 whole entry partner, species assumed): as the sequence (P30281 whole entry partner, species assumed) above
# Procedure: The final volume for assay was 16 μL, and the reaction temperature was 27° C. […] The compound was dissolved in dimethyl sulfoxide (DMSO) to reach a concentration of 10 mM. […] 2 μL of the test compound solution was mixed with 5 μL of the kinase solution, and the mixture was incubated for 10 min. 5 μL of the mixed solution of the polypeptide substrate and ATP was then added. The mixture was incubated at 27° C. for 120 min, and then the reaction was terminated by adding 4 μL of EDTA with a concentration of 120 mM to each sample. […] Each assay was conducted in at least two replicates.
# as §1
# [3] = target: CDK9 (Homo sapiens, UniProt P50750); assay: In-vitro kinase inhibitory activity, CDK9 (selectivity); type: biochemical; details: read-out: IC50 (half maximal inhibitory concentration, nM) CDK9
# Sequence of CDK9 (P50750 whole entry, species assumed): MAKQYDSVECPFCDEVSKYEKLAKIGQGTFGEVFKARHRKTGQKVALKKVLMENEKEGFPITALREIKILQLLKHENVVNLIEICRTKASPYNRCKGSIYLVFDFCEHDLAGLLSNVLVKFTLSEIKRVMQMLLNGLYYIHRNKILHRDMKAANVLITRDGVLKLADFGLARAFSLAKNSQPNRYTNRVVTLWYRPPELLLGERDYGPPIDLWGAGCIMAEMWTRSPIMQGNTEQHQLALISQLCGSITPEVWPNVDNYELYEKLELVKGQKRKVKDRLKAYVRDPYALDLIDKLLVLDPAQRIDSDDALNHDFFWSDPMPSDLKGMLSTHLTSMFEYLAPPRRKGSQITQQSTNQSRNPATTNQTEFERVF
# Sequence of CDK9 (O60563 whole entry partner, species assumed): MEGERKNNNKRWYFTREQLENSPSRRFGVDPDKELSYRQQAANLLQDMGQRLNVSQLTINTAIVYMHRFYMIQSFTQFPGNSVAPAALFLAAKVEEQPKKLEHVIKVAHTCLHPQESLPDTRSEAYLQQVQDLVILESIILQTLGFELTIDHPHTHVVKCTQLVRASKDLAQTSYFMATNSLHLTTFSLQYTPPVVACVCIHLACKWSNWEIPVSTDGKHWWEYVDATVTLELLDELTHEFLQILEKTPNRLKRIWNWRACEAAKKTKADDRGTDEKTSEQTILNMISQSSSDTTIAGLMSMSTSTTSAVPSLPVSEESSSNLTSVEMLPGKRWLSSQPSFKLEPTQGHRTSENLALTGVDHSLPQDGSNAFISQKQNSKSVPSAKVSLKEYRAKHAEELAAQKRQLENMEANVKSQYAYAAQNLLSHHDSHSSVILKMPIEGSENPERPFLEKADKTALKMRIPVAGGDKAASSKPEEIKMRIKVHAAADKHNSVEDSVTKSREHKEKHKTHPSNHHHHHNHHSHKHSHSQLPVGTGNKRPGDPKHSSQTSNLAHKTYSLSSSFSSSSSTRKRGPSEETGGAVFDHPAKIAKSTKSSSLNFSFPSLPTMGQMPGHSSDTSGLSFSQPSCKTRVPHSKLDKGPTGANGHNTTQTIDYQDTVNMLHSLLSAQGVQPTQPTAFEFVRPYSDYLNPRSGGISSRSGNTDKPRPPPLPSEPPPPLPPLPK
# [4] = test system: human colon cancer COLO205 cells; assay: Growth inhibition of tumor cells cultured in vitro, CellTiter-Glo, COLO205; type: cell-based; details: Homo sapiens, COLO 205, 72 h, COLO205, 72 h, CellTiter-Glo
# Source text: (§2) Test drugs: Compounds of the present disclosure. Tumor cell strains: human colon cancer COLO205 cells and human breast cancer MCF-7 cells.
# (§3) The growth inhibitory effects on human tumor cells COLO205 and MCF-7 cultured in vitro were observed by using a CellTiter-Glo Luminescent Cell Viability Assay Kit (Promega, Cat. No. G7572). Human tumor cells COLO205 and MCF-7 were both purchased from the American Type Culture Collection.
# (§4) CellTiter-Glo Luminescent Cell Viability Assay: The previous cell culture medium was discarded, and the tumor cells were rinsed twice with PBS. An appropriate amount of trypsin (VWR, Cat. No. 0458-25G) was added to digest the tumor cells until most of the cells turned round and were detached from the wall. The trypsin digestion was terminated by adding an RPMI-1640 medium (COLO205; Gibco, Cat. No. A10491-01) containing 10% fetal bovine serum (Hyclone, Cat. No. SV30160.03) and MEM medium (MCF-7; Gibco, Cat. No. 10370-021) containing 10% fetal bovine serum and 0.01 mg/mL insulin, and the cells were gently pipetted with a pipette to completely suspend the tumor cells. After cell counting, a tumor cell suspension was prepared using a complete culture medium and the final concentration was 6.7×10^4 cells/mL. 90 μL of the tumor cell suspension was seeded in each well of a 96-well culture plate (6000 cells/well). The plate was then placed in an incubator with 5% CO2 at 37° C. and incubated for 24 h. A test drug was added by using an Agilent Bravo Automated Liquid Handling Platform, and 10 μL of the sample was added in each well. The assay was conducted in triplicate for each group. A compound of the present disclosure was dissolved in DMSO (BioRoYee, Cat. No. AF0231), and then the resulting solution was diluted to 10 μM/L, 3.33 μM/L, 1.11 μM/L, 0.37 μM/L, 0.123 μM/L, 0.041 μM/L, 0.0137 μM/L, 0.0046 μM/L, and 0.0015 μM/L with the culture medium. The concentration of DMSO was lower than 0.1%, and a culture medium containing 0.1% DMSO was added to the well which was set as a vehicle control group. The 96-well plate was placed in an incubator with 5% CO2 at 37° C. and incubated for 72 h. The 96-well plate to be tested was equilibrated at room temperature for 30 min, and 100 μL of Cell Titer-Glo reagent was added to each well. The contents of each well were mixed in an orbital shaker for 2 min to induce cell lysis, and the plate was incubated at room temperature for 10 min to achieve a constant value of fluorescent intensity. Finally, the chemiluminescence intensity was detected by TECAN M1000. Data were processed with Graphpad Prism 6.0 software. The growth curve of the cells was plotted. The cell growth inhibition rate of a drug was calculated, and the half maximal inhibitory concentration (IC50) of the drug was determined.
# [5] = test system: human breast cancer MCF-7 cells; assay: Growth inhibition of tumor cells cultured in vitro, CellTiter-Glo, MCF-7; type: cell-based
# Source text: as §2, §3, §4
IC50 [1],IC50 [2],IC50 [3],IC50 [4],"IC50 ([5]; Homo sapiens, MCF7, 72 h, MCF-7, 72 h, CellTiter-Glo)",SMILES,inhibitory effect on human breast cancer MCF-7 cells (in words) ([5]; summary of the table)
53.2 nM,37.1 nM,3950 nM,–,–,"CC(=O)c1c(C)c2cnc(Nc3ccc(N4CCN(CCN5CCN(c6ccc7c(c6Cl)CN(C6CCC(=O)NC6=O)C7=O)CC5)CC4)cn3)nc2n(C2CCCC2)c1=O (centres unmarked) [Compound 21, 3-(5-(4-(2-(4-(6-((6-acetyl-8-cyclopentyl-5-methyl-7-oxo-7,8-dihydropyrido[2,3-d]pyrimidin-2-yl)amino)pyridin-3-yl)piperazin-1-yl)ethyl)piperazin-1-yl)-4-chloro-1-oxoisoindolin-2-yl)piperidine-2,6-dione dihydrochloride]",–
12.7 nM,4.44 nM,1480 nM,95.9 nM,–,"CC(=O)c1c(C)c2cnc(Nc3ccc(N4CCN(CCN5CCC(CN6CCN(c7ccc8c(c7Cl)CN(C7CCC(=O)NC7=O)C8=O)CC6)CC5)CC4)cn3)nc2n(C2CCCC2)c1=O (centres unmarked) [Compound 36, 3-(5-(4-((1-(2-(4-(6-((6-acetyl-8-cyclopentyl-5-methyl-7-oxo-7,8-dihydropyrido[2,3-d]pyrimidin-2-yl)amino)pyridin-3-yl)piperazin-1-yl)ethyl)piperidin-4-yl)methyl)piperazin-1-yl)-4-chloro-1-oxoisoindolin-2-yl)piperidine-2,6-dione trihydrochloride]",–
38.4 nM,55.2 nM,4000 nM,–,–,"CN(C)C(=O)c1cc2cnc(Nc3ccc(N4CCN(CCN5CCC(CN6CCN(c7ccc8c(c7)CN(C7CCC(=O)NC7=O)C8=O)CC6)CC5)CC4)cn3)nc2n1C1CCCC1 (centres unmarked) [Compound 26, 7-cyclopentyl-2-((5-(4-(2-(4-((4-(2-(2,6-dioxopiperidin-3-yl)-1-oxoisoindolin-5-yl)piperazin-1-yl)methyl)piperidin-1-yl)ethyl)piperazin-1-yl)pyridin-2-yl)amino)-N,N-dimethyl-7H-pyrrolo[2,3-d]pyrimidin-6-amide trihydrochloride]",–
45.4 nM,29.6 nM,> 10000 nM,–,71.6 nM,"CC(=O)c1c(C)c2cnc(Nc3ccc(N4CCN(CCN5CCN(c6cc7c(cc6F)C(=O)N(C6CCC(=O)NC6=O)C7)CC5)CC4)cn3)nc2n(C2CCCC2)c1=O.Cl.Cl (centres unmarked) [Compound 27, 3-(5-(4-(2-(4-(6-((6-acetyl-8-cyclopentyl-5-methyl-7-oxo-7,8-dihydropyrido[2,3-d]pyrimidin-2-yl)amino)pyridin-3-yl)piperazin-1-yl)ethyl)piperazin-1-yl)-6-fluoro-1-oxoisoindolin-2-yl)piperidine-2,6-dione dihydrochloride]",relatively good inhibitory effects
71.1 nM,26.6 nM,> 10000 nM,59.4 nM,–,"CC(=O)c1c(C)c2cnc(Nc3ccc(N4CCN(CCC5CCN(c6ccc7c(c6)CN(C6CCC(=O)NC6=O)C7=O)CC5)CC4)cn3)nc2n(C2CCCC2)c1=O (centres unmarked) [Compound 13, 3-(5-(4-(2-(4-(6-((6-acetyl-8-cyclopentyl-5-methyl-7-oxo-7,8-dihydropyrido[2,3-d]pyrimidin-2-yl)amino)pyridin-3-yl)piperazin-1-yl)ethyl)piperidin-1-yl)-1-oxoisoindolin-2-yl)piperidine-2,6-dione]",–
56.1 nM,11.3 nM,5760 nM,440 nM,–,"CC(=O)c1c(C)c2cnc(Nc3ccc(N4CCN(CCN5CCC(CC6CCN(c7ccc8c(c7Cl)CN(C7CCC(=O)NC7=O)C8=O)CC6)CC5)CC4)cn3)nc2n(C2CCCC2)c1=O (centres unmarked) [Compound 39, 3-(5-(4-((1-(2-(4-(6-((6-acetyl-8-cyclopentyl-5-methyl-7-oxo-7,8-dihydropyrido[2,3-d]pyrimidin-2-yl)amino)pyridin-3-yl)piperazin-1-yl)ethyl)piperidin-4-yl)methyl)piperidin-1-yl)-4-chloro-1-oxoisoindolin-2-yl)piperidine-2,6-dione dihydrochloride]",–
33.3 nM,19.2 nM,> 10000 nM,194 nM,–,"CC(=O)c1c(C)c2cnc(Nc3ccc(N4CCC(CCN5CCC(CC6CCN(c7ccc8c(c7)CN(C7CCC(=O)NC7=O)C8=O)CC6)CC5)CC4)cn3)nc2n(C2CCCC2)c1=O (centres unmarked) [Compound 42, 3-(5-(4-((1-(2-(1-(6-((6-acetyl-8-cyclopentyl-5-methyl-7-oxo-7,8-dihydropyrido[2,3-d]pyrimidin-2-yl)amino)pyridin-3-yl)piperidin-4-yl)ethyl)piperidin-4-yl)methyl)piperidin-1-yl)-1-oxoisoindolin-2-yl)piperidine-2,6-dione hydrochloride]",–
55 nM,23.3 nM,6810 nM,50.9 nM,–,"CC(=O)c1c(C)c2cnc(Nc3ccc(N4CCN(CCN5CCC(CC6CCN(c7ccc8c(c7Cl)CN([C@H]7CCC(=O)NC7=O)C8=O)CC6)CC5)CC4)cn3)nc2n(C2CCCC2)c1=O [Compound 40, (S)-3-(5-(4-((1-(2-(4-(6-((6-acetyl-8-cyclopentyl-5-methyl-7-oxo-7,8-dihydropyrido[2,3-d]pyrimidin-2-yl)amino)pyridin-3-yl)piperazin-1-yl)ethyl)piperidin-4-yl)methyl)piperidin-1-yl)-4-chloro-1-oxoisoindolin-2-yl)piperidine-2,6-dione dihydrochloride]",–
67.1 nM,29.6 nM,> 10000 nM,–,–,"COc1cc(N2CCN(CCN3CCN(c4ccc(Nc5ncc6c(C)c(C(C)=O)c(=O)n(C7CCCC7)c6n5)nc4)CC3)CC2)cc2c1C(=O)N(C1CCC(=O)NC1=O)C2 (centres unmarked) [Compound 17, 3-(5-(4-(2-(4-(6-((6-acetyl-8-cyclopentyl-5-methyl-7-oxo-7,8-dihydropyrido[2,3-d]pyrimidin-2-yl)amino)pyridin-3-yl)piperazin-1-yl)ethyl)piperazin-1-yl)-7-methoxy-1-oxoisoindolin-2-yl)piperidine-2,6-dione dihydrochloride]",–
8.88 nM,6.73 nM,1400 nM,76.2 nM,–,"CC(=O)c1c(C)c2cnc(Nc3ccc(N4CCN(CCN5CCC(CC6CCN(c7ccc8c(c7)CN([C@H]7CCC(=O)NC7=O)C8=O)CC6)CC5)CC4)cn3)nc2n(C2CCCC2)c1=O [Compound 38, (S)-3-(5-(4-((1-(2-(4-(6-((6-acetyl-8-cyclopentyl-5-methyl-7-oxo-7,8-dihydropyrido[2,3-d]pyrimidin-2-yl)amino)pyridin-3-yl)piperazin-1-yl)ethyl)piperidin-4-yl)methyl)piperidin-1-yl)-1-oxoisoindolin-2-yl)piperidine-2,6-dione dihydrochloride]",–
